From article PMC10703884, “Targeting the COMMD4–H2B protein complex in lung cancer” (British Journal of Cancer, 2023)
No end group written: not given here.

What was measured:
HBEC3-KT cells [1] = experiment: Mitotic catastrophe (emerin and phalloidin staining), HBEC3-KT cells; type: cell-based, Human; details: 100 cells counted
Experimental: (§1) For siRNA transfections, cells were transfected with negative control or COMMD4 siRNA #2 (CCAUGUCCCUCUCAGCAGA[dT][dT] MISSION® siRNA, Sigma-Aldrich) using RNAiMax (Life Technologies) as previously described and samples were analysed 48 to 72 h post-transfection. The H2B wild-type (FLAG-H2BWT) and mutant (FLAG-H2BMUT1) expression constructs were generated with the 10-amino acid peptide and the corresponding mutant cloned into the expression vector pCDNA3.1/(+)-N-DYK containing an N-terminal FLAG tag and a C-terminal nuclear localisation signal (AAKRVKLDS) (GenScript). […] Cells were mock-transfected, or transfected with FLAG-H2BWT/FLAG-H2BMUT1, or COMMD4-FLAG/A70K with FuGENE® HD (Promega) using the manufacturer’s protocol and analysed 24 h post-transfection.
NSCLC cells were grown in 96-well plates as above and stained with anti-emerin antibody and phalloidin. Mitotic catastrophe was scored as previous. A minimum of 100 cells for each experimental condition were assessed to determine the percentage of aberrant nuclei.
As previously determined, in this study, we used two markers to determine mitotic catastrophe: emerin staining of the nuclear envelope and phalloidin staining of the F-actin cytoskeleton. […] We subsequently measured apoptosis by staining for Annexin V and propidium iodide via flow cytometry in FLAG-H2B WT, FLAG-H2BMUT1 and mock-transfected control and NSCLC cells (Fig. 5c, d). […]

NSCLC cells = experiment: Immunofluorescence γH2AX and MDC1 foci, NSCLC cells; type: cell-based; details: 6 Gy IR, 0.5 to 2 h post-IR, 50 cells per condition, three independent experiments
Experimental: (§2) For siRNA transfections, cells were transfected with negative control or COMMD4 siRNA #2 (CCAUGUCCCUCUCAGCAGA[dT][dT] MISSION® siRNA, Sigma-Aldrich) using RNAiMax (Life Technologies) as previously described and samples were analysed 48 to 72 h post-transfection. The H2B wild-type (FLAG-H2BWT) and mutant (FLAG-H2BMUT1) expression constructs were generated with the 10-amino acid peptide and the corresponding mutant cloned into the expression vector pCDNA3.1/(+)-N-DYK containing an N-terminal FLAG tag and a C-terminal nuclear localisation signal (AAKRVKLDS) (GenScript). A70K FLAG-COMMD4 expression construct was generated by mutating the corresponding COMMD4-FLAG construct to harbour an A70K mutation (GenScript). Cells were mock-transfected, or transfected with FLAG-H2BWT/FLAG-H2BMUT1, or COMMD4-FLAG/A70K with FuGENE® HD (Promega) using the manufacturer’s protocol and analysed 24 h post-transfection.
NSCLC and control cells transfected with siRNA or H2B plasmids were grown in optical glass bottom 96-well plates (Cellvis). Post-treatment, cells were pre-extracted with ice-cold extraction buffer (20 mM HEPES (pH 8), 20 mM NaCl, 5 mM MgCl2, 1 mM ATP, 0.5% NP40), to remove the soluble proteins and processed as previous. Images were captured using a Delta Vision PDV microscope 100x/1.42 Oil objective (Applied Precision, Inc). All immunofluorescence figures were assembled using Adobe Photoshop. High-content microscopy was performed using the InCell Analyzer 6500 Imaging System (GE Healthcare Life Sciences). Images were analysed using the InCarta Image Analysis software (GE Healthcare Life Sciences) where a minimum of 50 nuclei were quantified per experiment.
Fig. 4 Induction of DSBs in NSCLC and control cells. a Immunofluorescence staining of H1299 NSCLC cells transfected with control or COMMD4 siRNA #2 and FLAG-H2BWT or FLAG-H2BMUT1 is shown. […]
independent experiments where 50 cells were quantified per condition. γH2AX is shown in […]
mean ± SD from three independent experiments where 50 cells were quantified per condition.

GST-COMMD4 = experiment: FLAG immunoprecipitation, FLAG-H2B constructs with COMMD4; type: binding; details: FLAG-H2B immunoprecipitated from HEK293T cells, anti-FLAG M2 Dynabeads, 4 °C, immunoblot for GST-COMMD4 and FLAG
Experimental: as §2
Co-immunoprecipitations were performed as previously summarised, using ice-cold NP40 buffer. Assays for co-immunoprecipitations were performed at 4 °C from HEK293T, transiently expressing the FLAG-H2B WT or MUT plasmid. Proteins were captured using anti-FLAG M2 Dynabeads (ThermoFisher) and washed three times in NP40 buffer prior to analysis. […]

HBEC3-KT cells [2] = experiment: Immunofluorescence γH2AX and MDC1 foci, HBEC3-KT cells; type: cell-based, Human; details: 6 Gy IR, 50 cells per condition, three independent experiments
Experimental: as §2
NSCLC and control cells transfected with siRNA or H2B plasmids were grown in optical glass bottom 96-well plates (Cellvis). Post-treatment, cells were pre-extracted with ice-cold extraction buffer (20 mM HEPES (pH 8), 20 mM NaCl, 5 mM MgCl2, 1 mM ATP, 0.5% NP40), to remove the soluble proteins and processed as previous. […] Images were analysed using the InCarta Image Analysis software (GE Healthcare Life Sciences) where a minimum of 50 nuclei were quantified per experiment. […]

HBEC3-KT cells [3] = experiment: Annexin V-FITC / propidium iodide apoptosis, HBEC3-KT cells; type: cell-based, Human; details: flow cytometry, three independent experiments
Experimental: as §1
(§3) The Annexin V-FITC apoptosis kit (United Bioresearch, ALX-850-020-K101, Enzo Life Sciences, Farmingdale, NY, USA) was used to measure viable and apoptotic cells, as previously described. […] CytExpert 2.0 software was used for data acquisition and analysed using the FlowJo v10 software.
(§4) Fig. 5 Induction of mitotic catastrophe and apoptosis in NSCLC cells. a Emerin and phalloidin staining respectively in three NSCLC and control HBEC3-KT cells. […] Asterix (*) denotes *P < 0.05 and ** P < 0.005 from 100 cells counted. […] The live cells were stained with Annexin V-FITC and propidium iodide and analysed by flow cytometer. […]

[4] = system: H460, H1299 and CRL5889 NSCLC cells; experiment: Annexin V-FITC / propidium iodide apoptosis, NSCLC cells; type: cell-based; details: flow cytometry, three independent experiments
Experimental: as §1, §3, §4

Substance: FLAG-H2BWT: 10-amino acid peptide cloned into expression vector containing an N-terminal FLAG tag and a C-terminal nuclear localisation signal ({FLAG}-SFVNDIFERIAAKRVKLDS)
- aberrant nuclei / mitotic catastrophe (HBEC3-KT cells [1]): also underwent mitotic catastrophe, but to a lesser extent than the NSCLC cell lines
- γH2AX and MDC1 (DNA repair) foci (NSCLC cells): significantly more DNA repair foci
- binding of overexpressed FLAG-H2B construct to COMMD4 (GST-COMMD4): interacted with COMMD4
- γH2AX and MDC1 (DNA repair) foci (HBEC3-KT cells [2]): exhibited increased DNA repair foci
- induction of apoptosis (HBEC3-KT cells [3]): no significant induction of apoptosis
- early and late apoptosis [4]: significantly increased early and late apoptosis compared to FLAG-H2BMUT1 and mock-transfected cells
